According to patent US20260217708A1, “FUSED BENZAZEPINE DERIVATIVES FOR USE IN THE TREATMENT OF CANCER AND EPILEPSY” (UCB BIOPHARMA SRL, priority 2023, published 2026):

Experiments:
[1] = target: T1, system Xc^− (Homo sapiens, UniProt Q9UPY5); assay: Cystine-induced glutamate release assay; type: cell-based; design: endogenous in cells; host or cells: H4 cells; settings: H4 cells, sodium-free HEPES buffer, 50 μM L-Cystine, 2 hours, Amplex Red glutamate readout; read-out: pIC50 Cystine-induced glutamate release assay (converted)
T1 sequence (Q9UPY5 1-501): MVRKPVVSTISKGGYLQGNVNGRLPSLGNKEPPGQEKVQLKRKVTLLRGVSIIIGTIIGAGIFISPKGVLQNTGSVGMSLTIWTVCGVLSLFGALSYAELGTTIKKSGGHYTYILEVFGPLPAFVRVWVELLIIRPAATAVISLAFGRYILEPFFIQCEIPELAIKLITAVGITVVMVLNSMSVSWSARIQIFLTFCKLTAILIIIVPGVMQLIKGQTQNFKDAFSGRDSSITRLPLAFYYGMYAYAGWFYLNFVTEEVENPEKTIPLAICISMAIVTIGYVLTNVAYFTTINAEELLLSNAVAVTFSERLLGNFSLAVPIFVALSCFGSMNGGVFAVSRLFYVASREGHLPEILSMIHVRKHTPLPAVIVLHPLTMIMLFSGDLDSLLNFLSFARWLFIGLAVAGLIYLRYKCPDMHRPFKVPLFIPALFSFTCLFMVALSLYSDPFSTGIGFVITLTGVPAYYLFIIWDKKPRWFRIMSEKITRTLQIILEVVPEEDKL
T1 sequence (P08195 1-529 partner): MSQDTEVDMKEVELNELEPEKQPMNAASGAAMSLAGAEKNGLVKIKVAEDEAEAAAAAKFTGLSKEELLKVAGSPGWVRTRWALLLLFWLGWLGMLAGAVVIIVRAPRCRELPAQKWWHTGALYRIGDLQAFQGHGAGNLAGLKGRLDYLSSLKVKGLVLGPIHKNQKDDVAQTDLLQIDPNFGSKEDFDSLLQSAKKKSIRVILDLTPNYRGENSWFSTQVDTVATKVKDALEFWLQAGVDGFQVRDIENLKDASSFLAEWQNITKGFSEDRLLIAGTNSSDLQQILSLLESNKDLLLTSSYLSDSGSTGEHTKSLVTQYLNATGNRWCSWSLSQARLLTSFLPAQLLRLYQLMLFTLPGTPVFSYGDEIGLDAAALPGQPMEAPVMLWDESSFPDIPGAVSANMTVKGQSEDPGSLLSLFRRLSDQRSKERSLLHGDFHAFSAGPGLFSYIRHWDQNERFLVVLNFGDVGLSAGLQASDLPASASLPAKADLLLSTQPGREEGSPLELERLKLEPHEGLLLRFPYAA
In short: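 H4 cells in sodium-free HEPES buffer (pH 7.4), 2 days after plating; glutamate release induced with 50 μM L-cystine plus compound (1% DMSO), 2 h at 37 °C. Supernatant glutamate measured by Amplex Red fluorescence; IC50/pIC50 derived between 1% DMSO and 50 μM erastin controls.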

[2] = target: T1, system Xc^−; assay: [^14C]L-Cystine uptake assay; type: cell-based; design: endogenous in cells; host or cells: H4 cells; settings: H4 cells, sodium-free HEPES buffer, 0.5 μM L-[14C]Cystine and 4.5 μM L-Cystine, 1 hour at 37° C.; read-out: pIC50 [^14C] L-Cystine uptake assay (converted)
In short: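 H4 cells at 5×10^4 cells/well in sodium-free HEPES buffer were preincubated 15 min with compounds (1% DMSO). Uptake of 0.5 μM [14C]L-cystine plus 4.5 μM unlabelled L-cystine ran 1 hour at 37° C on scintillating plates. IC50 was set between 1% DMSO and 50 μM Erastin controls and expressed as pIC50.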

SMILES | IC50 [1] [nM] | IC50 [2] [nM]
CC1C(=O)N(CC(=O)Nc2ccc(Cl)c(F)c2)c2cc(CN3CC(C)(O)C3)ccc2-c2cccnc21 (centres unmarked) [#343, N-(4-chloro-3-fluoro-phenyl)-2-[9-[(3-hydroxy-3-methyl-azetidin-1-yl)methyl]-5-methyl-6-oxo-5H-pyrido[2,3d][1]benzazepin-7-yl]acetamide] | 39.8 to 100 | 100 to 501
CC1C(=O)N(CC(=O)Nc2ccc(Cl)c(F)c2)c2cc(CN3CC(F)(F)C3)ccc2-c2cccnc21 (centres unmarked) [#344, N-(4-chloro-3-fluoro-phenyl)-2-[9-[(3,3-difluoroazetidin-1-yl)methyl]-5-methyl-6-oxo-5H-pyrido[2,3-d][1]benzazepin-7-yl]acetamide] | 39.8 to 100 | 100 to 501
CC1C(=O)N(CC(=O)Nc2ccc(Cl)c(F)c2)c2cc(C3CN(CC(F)F)C3)cc(F)c2-c2cccnc21 (centres unmarked) [#345, N-(4-chloro-3-fluoro-phenyl)-2-[9-[1-(2,2-difluoroethyl)azetidin-3-yl]-11-fluoro-5-methyl-6-oxo-5H-pyrido[2,3-d][1]benzazepin-7-yl]acetamide] | 15.8 to 39.8 | 15.8 to 39.8
CCn1c2c(cc(C)c1=O)N(CC(=O)Nc1ccc(Cl)c(F)c1)C(=O)C(C)c1ccccc1-2 (centres unmarked) [#349, N-(4-chloro-3-fluoro-phenyl)-2-(1-ethyl-3,7-dimethyl-2,6-dioxo-7H-pyrido[3,2-d][3]benzazepin-5-yl)acetamide] | 15.8 to 39.8 | < 15.8
CC1C(=O)N(CC(=O)Nc2ccc(Cl)c(F)c2)c2ccn(C)c(=O)c2-c2ccccc21 (centres unmarked) [#351, N-(4-chloro-3-fluoro-phenyl)-2-(2,7-dimethyl-1,6-dioxo-7H-pyrido[4,3-d][3]benzazepin-5-yl)acetamide] | 39.8 to 100 | 39.8 to 100
Cc1cc2c(c(=O)n1C)-c1ccc(Cl)cc1C(C)C(=O)N2CC(=O)Nc1ccc(Cl)c(F)c1 (centres unmarked) [#352, N-(4-chloro-3-fluoro-phenyl)-2-(9-chloro-2,3,7-trimethyl-1,6-dioxo-7H-pyrido[4,3-d][3]benzazepin-5-yl)acetamide] | 15.8 to 39.8 | < 15.8
Cc1cc2c(n(C)c1=O)-c1ccnn1C(C)C(=O)N2CC(=O)Nc1ccc(Cl)c(F)c1 (centres unmarked) [#353, N-(4-chloro-3-fluoro-phenyl)-2-(7,12,14-trimethyl-8,13-dioxo-5,6,9,14-tetrazatricyclo[8.4.0.0^2,6]tetradeca-1(10),2,4,11-tetraen-9-yl)acetamide] | 15.8 to 39.8 | 39.8 to 100
Cc1cc2c(n(C)c1=O)-c1ccc(F)cc1C(C)C(=O)N2CC(=O)Nc1ccc(Cl)c(F)c1 (centres unmarked) [#354, N-(4-chloro-3-fluoro-phenyl)-2-(9-fluoro-1,3,7-trimethyl-2,6-dioxo-7H-pyrido[3,2-d][3]benzazepin-5-yl)acetamide] | 15.8 to 39.8 | < 15.8
Cc1c2c(cc(=O)n1C)N(CC(=O)Nc1ccc(Cl)c(F)c1)C(=O)C(C)c1ccccc1-2 (centres unmarked) [#355, N-(4-chloro-3-fluoro-phenyl)-2-(1,2,7-trimethyl-3,6-dioxo-7H-pyrido[3,4-a][3]benzazepin-5-yl)acetamide] | 15.8 to 39.8 | 39.8 to 100
Cc1cc2c(c(F)n1)-c1ccn(C)c(=O)c1C(C)C(=O)N2CC(=O)Nc1ccc(Cl)c(F)c1 (centres unmarked) [#356, N-(4-chloro-3-fluoro-phenyl)-2-(3-fluoro-5,10,13-trimethyl-9,12-dioxo-4,8,13-triazatricyclo[9.4.0.0^2,7]pentadeca-1(11),2,4,6,14-pentaen-8-yl)acetamide] | 39.8 to 100 | 39.8 to 100
Cc1cc2c(c(=O)n1C)-c1sccc1C(C)C(=O)N2CC(=O)Nc1ccc(C(F)F)cc1 (centres unmarked) [#361, N-[4-(difluoromethyl)phenyl]-2-(7,12,13-trimethyl-8,14-dioxo-3-thia-9,13-diazatricyclo[8.4.0.0^2,6]tetradeca-1(10),2(6),4,11-tetraen-9-yl)acetamide] | 15.8 to 39.8 | < 15.8
CC1C(=O)N(CC(=O)Nc2ccc(Cl)c(F)c2)c2cc(CO)c(=O)n(C)c2-c2ccccc21 (centres unmarked) [#363, N-(4-chloro-3-fluoro-phenyl)-2-[3-(hydroxymethyl)-1,7-dimethyl-2,6-dioxo-7H-pyrido[3,2-d][3]benzazepin-5-yl]acetamide] | 15.8 to 39.8 | 39.8 to 100
CC1C(=O)N(CC(=O)Nc2ccc(Cl)c(F)c2)c2ccn(C(F)F)c(=O)c2-c2cccnc21 (centres unmarked) [#366, N-(4-chloro-3-fluoro-phenyl)-2-[4-(difluoromethyl)-10-methyl-3,9-dioxo-4,8,12-triazatricyclo[9.4.0.0^2,7]pentadeca-1(15),2(7),5,11,13-pentaen-8-yl]acetamide] | 39.8 to 100 | 39.8 to 100

The next lines start with the values.

IC50 [1] [nM] | IC50 [2] [nM] | SMILES
15.8 to 39.8 | 39.8 to 100 | CC1C(=O)N(CC(=O)Nc2ccc(C(F)F)cc2)c2cc(C3CC3)c(=O)n(C)c2-c2ccccc21 (centres unmarked) [#322, 2-(3-cyclopropyl-1,7-dimethyl-2,6-dioxo-7H-pyrido[3,2-d][3]benzazepin-5-yl)-N-[4-(difluoromethyl)phenyl]acetamide]
< 15.8 | < 15.8 | O=C(CN1C(=O)Cc2ccccc2-c2c1cc(C(F)F)nc2Cl)Nc1ccc(C(F)F)cc1 [#339, 2-[1-chloro-3-(difluoromethyl)-6-oxo-7H-pyrido[4,3-d][3]benzazepin-5-yl]-N-[4-(difluoromethyl)phenyl]acetamide]
15.8 to 39.8 | 39.8 to 100 | CC1C(=O)N(CC(=O)Nc2ccc(Cl)c(F)c2)c2cc(C(F)F)ccc2-c2cccnc21 (centres unmarked) [#341, N-(4-chloro-3-fluoro-phenyl)-2-[9-(difluoromethyl)-5-methyl-6-oxo-5H-pyrido[2,3-d][1]benzazepin-7-yl]acetamide]
39.8 to 100 | 39.8 to 100 | CC1C(=O)N(CC(=O)Nc2ccc(C(F)F)cc2)c2cc(C3CC3C(F)(F)F)cc(F)c2-c2cccnc21 (centres unmarked) [#346, N-[4-(difluoromethyl)phenyl]-2-[11-fluoro-5-methyl-6-oxo-9-[2-(trifluoromethyl)cyclopropyl]-5H-pyrido[2,3-d][1]benzazepin-7-yl]acetamide]
39.8 to 100 | 15.8 to 39.8 | CC1C(=O)N(CC(=O)Nc2ccc(C(F)F)cc2)c2cc(C3CC3)nc(Cl)c2-c2cccnc21 (centres unmarked) [#347, 2-(3-chloro-5-cyclopropyl-10-methyl-9-oxo-4,8,12-triazatricyclo[9.4.0.0^2,7]pentadeca-1(15),2,4,6,11,13-hexaen-8-yl)-N-[4-(difluoromethyl)phenyl]acetamide]
15.8 to 39.8 | 15.8 to 39.8 | Cc1cc2c(n(C)c1=O)-c1ccccc1CC(=O)N2CC(=O)Nc1ccc(Cl)c(F)c1 [#350, N-(4-chloro-3-fluoro-phenyl)-2-(1,3-dimethyl-2,6-dioxo-7H-pyrido[3,2-d][3]benzazepin-5-yl)acetamide]
15.8 to 39.8 | < 15.8 | COc1cc2c(c(=O)n1C)-c1ccccc1C(C)C(=O)N2CC(=O)Nc1ccc(C(F)F)cc1 (centres unmarked) [#362, N-[4-(difluoromethyl)phenyl]-2-(3-methoxy-2,7-dimethyl-1,6-dioxo-7H-pyrido[4,3-d][3]benzazepin-5-yl)acetamide]
39.8 to 100 | 39.8 to 100 | Cc1cc(F)c2c(c1)N(CC(=O)Nc1ccc(C(F)F)cc1)C(=O)C(C)c1ncncc1-2 (centres unmarked) [#370, N-[4-(difluoromethyl)phenyl]-2-(11-fluoro-5,9-dimethyl-6-oxo-5H-pyrimido[4,5-d][1]benzazepin-7-yl)acetamide]
< 15.8 | < 15.8 | Cc1cc2c(c(OCCO)n1)-c1cccnc1[C@@H](C)C(=O)N2CC(=O)Nc1ccc(C(F)F)cc1 [#374, N-[4-(difluoromethyl)phenyl]-2-[(10R)-3-(2-hydroxyethoxy)-5,10-dimethyl-9-oxo-4,8,12-triazatricyclo[9.4.0.0^2,7]pentadeca-1(11),2(7),3,5,12,14-hexaen-8-yl]acetamide]
